In patent US20210371413A1, “POLYCYCLIC AMIDES AS CYTOTOXIC AGENTS” (FEMTOGENIX LIMITED, priority 2018, published 2021):

Assays:
[1] = test system: transcription factors in HeLa cells; assay: Transcription factor plate array assay; assay type: cell-based; conditions: 100 nM, 6 hours
Experimental: The consensus sequences of each of these transcription factors corresponds to the DNA footprinting pattern observed for 16.
The transcription factor plate array assay kit was obtained from Signosis Inc (USA). Briefly, 2×10^6 HeLa cells were treated with 100 nM compound 16 and incubated for 6 hours before extracting the nuclear protein and carrying out the TF plate array assay. The assay was carried out following the manufacturer's protocol. In the case of each transcription factor, the RLU value obtained for the cells treated with 16 was deducted from the respective values obtained for the untreated cells to obtain the differences in TF activation/inhibition.

[2] = test system: 5′-[…]-3′ (poly GC) DNA duplex; assay: FRET DNA melting, poly GC duplex; assay type: binding; conditions: 5′-AATAGGGGGTCGCCTATT-3′
Experimental: FRET DNA melting studies were undertaken on 15 and 16 using two fluorescently labelled sequences. The sequences (FIG. 1) were designed to represent poly AT and poly GC sequences.
The short duplexes used in this FRET study are relatively unstable in the duplex form with a melting temperature below 30° C. so that, in the absence of ligand, a large part of the melting occurs below the starting temperature of the experiment. However, it can be observed that 15 stabilizes the duplex form, producing increases in melting temperature with ΔTm values of […] for 5′-AAAAAAAGAAAAAATIT-3′ (FIG. 2, top panel), and ˜25° C. (FIG. 2, bottom panel).
Oligonucleotides were obtained from ATDbio (Southampton, UK) in lyophilised form. […]
The reaction mixture was comprised of 4 μL of 250 mM phosphate buffer (final concentration of 50 mM), 4 μL flourophor and 4 μL quencher molecule of the appropriate oligonucleotide for a final concentration of 0.2 μM, 4 μL 5 M sodium chloride (final concentration of 1 M NaCl), and 4 μL of distilled H2O. […] This mixture was analysed without prior annealing.
Fluorescence melting profiles were measured using a Roche LightCycler using a total reaction volume of 20 μL. […] Annealing steps and melting steps were all recorded and changes in fluorescence were measured at 520 nm. […]

"D" DNA fragment = assay: DNA footprinting, random "D" DNA fragment; assay type: binding; conditions: random "D" DNA sequence
Experimental: The DNA sequence selectivity profile of the molecules was investigated using a modification of the previously established DNA footprinting assay. Following an overnight incubation of the ligand-DNA complexes, the mixture was mixed with strand separation buffer containing 10 mM EDTA, 10 mM NaOH, 0.1% bromophenol blue, 80% formamide and incubated at 100° C. for 3 min. The mixture was then immediately cooled on ice and run on an 8% denaturing gel.
The preparation of the DS3 DNA fragment (FIG. 5) and the “D” DNA fragment (FIG. 6) has been previously described. Briefly, the sequence which had been cloned into the BamHI site of pUC18 was obtained by cutting with HindIII and EcoRI. Radiolabelled DNA fragments were prepared by filling in the 3′-end of the HindIII site with [α-^32P]dATP using Klenow DNA polymerase (exo-).
The radiolabelled DNA fragment was separated from the remainder of the plasmid DNA on a 6% non-denaturing polyacrylamide gel. […]
Footprinting reactions were performed as previously described using the DNA fragments DS3, which contains tracts of AT/GC bases; and using the “D” DNA fragments which represents a random DNA sequence. […] After gel purification, the radiolabelled DNA was dissolved in 10 mM Tris-HCl pH 7.5 containing 0.1 mM EDTA, at a concentration of about 10 c.p.s per μL as determined on a hand held Geiger counter. […]

Structure (SMILES): COc1cc2c(cc1OCCCC(=O)Nc1cc(C(=O)Nc3ccc(-c4cc(C(=O)Nc5ccc(N)cc5)n(C)c4)cc3)n(C)c1)NC[C@@H]1CCCCN1C2=O [Compound 16, (S)—N-(4-Aminophenyl)-4-(4-(4-(4-((2-methoxy-12-oxo-5,6,6a,7,8,9,10,12-octahydrobenzo[e]pyrido[1,2-a][1,4]diazepin-3-yl)oxy)butanamido)-1-methyl-1H-pyrrole-2-carboxamido)phenyl)-1-methyl-1H-pyrrole-2-carboxamide]
- major transcription factors down-regulated [1]: GR/PR, CDP, ATG2 and Oct-4
- interactivity with the poly-GC sequence (FRET) [2]: little interactivity
- preferred binding sites (footprint) ("D" DNA fragment): only three preferred sites were observed during this experiment, and all are primarily AT-rich
